The values that follow come from patent US20230365592A1 (Agios Pharmaceuticals, Inc., priority 2022, published 2023).

Molecules are shown by their SMILES.

In the first experiment the target is T1, human PAH with the R408W mutation (Homo sapiens, UniProt P00439, R408W).
T1 construct: expressed in transfected cells
T1 sequence (P00439 1-452 R408W): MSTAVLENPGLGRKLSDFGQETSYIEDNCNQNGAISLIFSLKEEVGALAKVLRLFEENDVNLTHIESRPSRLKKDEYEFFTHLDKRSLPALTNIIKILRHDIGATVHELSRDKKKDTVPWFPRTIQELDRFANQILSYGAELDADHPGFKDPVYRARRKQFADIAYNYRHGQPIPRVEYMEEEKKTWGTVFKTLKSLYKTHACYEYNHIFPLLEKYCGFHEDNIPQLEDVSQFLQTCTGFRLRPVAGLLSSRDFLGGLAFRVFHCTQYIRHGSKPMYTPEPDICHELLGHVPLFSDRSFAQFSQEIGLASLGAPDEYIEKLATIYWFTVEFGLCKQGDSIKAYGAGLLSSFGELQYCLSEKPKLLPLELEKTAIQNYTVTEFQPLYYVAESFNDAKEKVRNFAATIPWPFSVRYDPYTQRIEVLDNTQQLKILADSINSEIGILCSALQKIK
The experiment in a line: Cell Based Phenylalanine Flux Assay.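 Also: after compound treatment, cells received sepiapterin plus isotope-labelled Phenylalanine for 4 hours, then labelled Tyrosine in the medium was quantified, 10-point 2-fold dilution series run in duplicate.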 To be noted: A375 cells expressing R408W PAH; 24 hrs with compound, then 20 µM sepiapterin and 800 µM 13C9,15N-Phenylalanine for 4 hours; 13C-Tyrosine by LC-MS; average where tested multiple times; read-out: AC50.
As to `O=C(c1nnc(C2CC(F)(F)C2)o1)N1CCc2[nH]cnc2C1c1cc2cccc(C(F)(F)F)n2n1` (stereo not drawn), the AC50 fell in the range of 1000 to 5000 nM. On to `CC(C)(F)c1nnc(N2CCc3[nH]cnc3C2c2cc3ccccn3n2)o1` (stereo not drawn), for which the AC50 is over 5000 nM. For `CC(O)c1nnc(C(=O)N2CCc3[nH]cnc3C2c2cc3ccccn3n2)o1` [4S enantiomer of (1R)-1-{5-[4-{pyrazolo[1,5-a]pyridin-2-yl}-], the AC50 is 1000 to 5000 nM. In the case of `O=C(c1cnc(-c2ncccn2)o1)N1CCc2[nH]cnc2C1c1cc2c(C(F)(F)F)cccn2n1` (stereo not drawn), the AC50 fell in the range of 1000 to 5000 nM. With `Cn1nc(C(F)(F)F)nc1C(=O)N1CCc2[nH]cnc2C1c1cc2cccc(C(F)(F)F)n2n1` (stereo not drawn), the AC50 was 1000 to 5000 nM. The same measure, in the same setting: next, `Cc1nnc(C(=O)N2CCc3[nH]cnc3C2c2cc3cccc(Cl)n3n2)o1` (stereo not drawn): 1000 to 5000 nM; `CCn1cnnc1C(=O)N1CCc2[nH]cnc2C1c1cc2ccccn2n1` (stereo not drawn): 1000 to 5000 nM.

The experiment is the same for the next values; noted with them: A375 cells expressing human PAH R408W; 24 hrs compound incubation; 13C-Tyrosine by LC-MS; average where tested multiple times; read-out: AC50.
With `Fc1cccc(F)c1-c1nnc(N2CCc3[nH]cnc3[C@@H]2c2cc3ccccn3n2)o1` (single isomer, unassigned) [Example 1842], the AC50 was over 5000 nM.

On to `FC(F)c1nnc(N2CCc3[nH]cnc3[C@@H]2c2cc3cccc(C(F)F)n3n2)o1` [Example 2220, (R)-2-(difluoromethyl)-5-(4-(7-(difluoromethyl)pyrazolo[1,5-a]pyridin-2-yl)-1,4,6,7-tetrahydro-5H-imidazo[4,5-c]pyridin-5-yl)-1,3,4-oxadiazole], for which the AC50 was over 5000 nM. As for `O=C(c1nc2ccccc2s1)N1CCc2[nH]cnc2[C@H]1c1cc2c(F)cccn2n1` [Example 2002, (S)-benzo[d]thiazol-2-yl(4-(4-fluoropyrazolo[1,5-a]pyridin-2-yl)-1,4,6,7-tetrahydro-5H-imidazo[4,5-c]pyridin-5-yl)methanone], the AC50 is 500 to 1000 nM. The same measure, in the same setting: for `CC(C)c1cccn2nc([C@H]3c4nc[nH]c4CCN3C(=O)c3nnc(-c4ccn(C)n4)o3)cc12` [Example 1950, (R)-(4-(4-isopropylpyrazolo[1,5-a]pyridin-2-yl)-1,4,6,7-tetrahydro-5H-imidazo[4,5-c]pyridin-5-yl)(5-(1-methyl-1H-pyrazol-3-yl)-1,3,4-oxadiazol-2-yl)methanone] the value was over 5000 nM; for `Cc1nnc(N2CCc3[nH]cnc3[C@H]2c2cc3c(OC(F)(F)F)cccn3n2)o1` [Example 2249, (S)-2-methyl-5-(4-(4-(trifluoromethoxy)pyrazolo[1,5-a]pyridin-2-yl)-1,4,6,7-tetrahydro-5H-imidazo[4,5-c]pyridin-5-yl)-1,3,4-oxadiazole], under 500 nM; for `Cn1cc(-c2nnc(C(=O)N3CCc4[nH]cnc4[C@@H]3c3cc4c(Br)cccn4n3)o2)cn1` [Example 1869, (R)-(4-(4-bromopyrazolo[1,5-a]pyridin-2-yl)-1,4,6,7-tetrahydro-5H-imidazo[4,5-c]pyridin-5-yl)(5-(1-methyl-1H-pyrazol-4-yl)-1,3,4-oxadiazol-2-yl)methanone], over 5000 nM. On the same count and under the same terms, next, `CC(C)c1cccn2nc([C@H]3c4nc[nH]c4CCN3c3ccc(C(F)(F)F)cn3)cc12` [Example 2149, (R)-4-(4-isopropylpyrazolo[1,5-a]pyridin-2-yl)-5-(5-(trifluoromethyl)pyridin-2-yl)-4,5,6,7-tetrahydro-1H-imidazo[4,5-c]pyridine]: over 5000 nM.

Staying with this experiment, now noted: A375 cells expressing human R408W PAH; 24 hrs compound incubation; 13C-Tyrosine by LC-MS; average where tested multiple times; read-out: AC50.
`Cc1cccn2nc([C@@H]3c4nc[nH]c4CCN3C(=O)c3nnc(-c4cnccn4)o3)cc12` [Example 957, (S)-(4-(4-methylpyrazolo[1,5-a]pyridin-2-yl)-6,7-dihydro-1H-imidazo[4,5-c]pyridin-5(4H)-yl)(5-(pyrazin-2-yl)-1,3,4-oxadiazol-2-yl)methanone]: the AC50 was under 500 nM. Still for that read-out and setting: next, `O=C(c1ccnn1C(F)F)N1CCc2[nH]cnc2[C@H]1c1cc2cccc(Cl)n2n1` [Example 1064, (S)-(4-(7-chloropyrazolo[1,5-a]pyridin-2-yl)-6,7-dihydro-1H-imidazo[4,5-c]pyridin-5(4H)-yl)(1-(difluoromethyl)-1H-pyrazol-5-yl)methanone]: 500 to 1000 nM; `CC(C)c1nnc(C(=O)N2CCc3[nH]cnc3[C@H]2c2cc3cccc(Cl)n3n2)o1` [Example 1488, (S)-(4-(7-chloropyrazolo[1,5-a]pyridin-2-yl)-6,7-dihydro-1H-imidazo[4,5-c]pyridin-5(4H)-yl)(5-isopropyl-1,3,4-oxadiazol-2-yl)methanone]: under 500 nM; `Cc1ccc2cc([C@H]3c4nc[nH]c4CCN3C(=O)c3cnco3)nn2c1` [Example 1186, (R)-(4-(6-methylpyrazolo[1,5-a]pyridin-2-yl)-6,7-dihydro-1H-imidazolo[4,5-c]pyridin-5(4H)-yl)(oxazol-5-yl)methanone]: 500 to 1000 nM. `O=C(c1ccnn1C(F)F)N1CCc2[nH]cnc2[C@H]1c1cc2cc(C(F)(F)F)ccn2n1` [Example 1132, (S)-(1-(difluoromethyl)-1H-pyrazol-5-yl)(4-(5-(trifluoromethyl)pyrazolo[1,5-a]pyridin-2-yl)-6,7-dihydro-1H-imidazo[4,5-c]pyridin-5(4H)-yl)methanone]: the AC50 is under 500 nM. The same measure, in the same setting: next, `COc1ccc2c(C(=O)N3CCc4[nH]cnc4[C@H]3c3cc4c(C(F)(F)F)cccn4n3)cnn2c1` [Example 1674, (S)-(6-methoxypyrazolo[1,5-a]pyridin-3-yl)(4-(4-(trifluoromethyl)pyrazolo[1,5-a]pyridin-2-yl)-6,7-dihydro-1H-imidazo[4,5-c]pyridin-5(4H)-yl)methanone]: 500 to 1000 nM; `O=C(c1nnc(C2CC(F)(F)C2)o1)N1CCc2[nH]cnc2[C@@H]1c1cc2c(F)cccn2n1` [Example 1605, (R)-(5-(3,3-difluorocyclobutyl)-1,3,4-oxadiazol-2-yl)(4-(4-fluoropyrazolo[1,5-a]pyridin-2-yl)-6,7-dihydro-1H-imidazo[4,5-c]pyridin-5(4H)-yl)methanone]: over 5000 nM; `Cn1nc(C(F)F)nc1C(=O)N1CCc2[nH]cnc2[C@H]1c1cc2ccc(C(F)(F)F)cn2n1` [Example 1126, (S)-(3-(difluoromethyl)-1-methyl-1H-1,2,4-triazol-5-yl)(4-(6-(trifluoromethyl)pyrazolo[1,5-a]pyridin-2-yl)-6,7-dihydro-1H-imidazo[4,5-c]pyridin-5(4H)-yl)methanone]: under 500 nM.

Take `Cc1cnn(C)c1-c1nnc(C(=O)N2CCc3[nH]cnc3[C@H]2c2cc3c(C)cccn3n2)o1` [Example 926, (S)-(5-(1,4-dimethyl-1H-pyrazol-5-yl)-1,3,4-oxadiazol-2-yl)(4-(4-methylpyrazolo[1,5-a]pyridin-2-yl)-6,7-dihydro-1H-imidazo[4,5-c]pyridin-5(4H)-yl)methanone]: the AC50 is under 500 nM. Same read-out and setting: for `Cc1nc(C(C)(C)F)oc1C(=O)N1CCc2[nH]cnc2[C@H]1c1cc2c(F)cccn2n1` [Example 1275, (S)-(2-(2-fluoropropan-2-yl)-4-methyloxazol-5-yl)(4-(4-fluoropyrazolo[1,5-a]pyridin-2-yl)-6,7-dihydro-1H-imidazo[4,5-c]pyridin-5(4H)-yl)methanone] the value was under 500 nM. The same measure, in the same setting: next, `Cc1ccc2c(C(=O)N3CCc4[nH]cnc4[C@H]3c3cc4c(F)cccn4n3)cnn2c1` [Example 1670, (S)-(4-(4-fluoropyrazolo[1,5-a]pyridin-2-yl)-6,7-dihydro-1H-imidazo[4,5-c]pyridin-5(4H)-yl)(6-methylpyrazolo[1,5-a]pyridin-3-yl)methanone]: 500 to 1000 nM; `Cc1cc(C(=O)N2CCc3[nH]cnc3[C@@H]2c2cc3c(C)cccn3n2)n(C)n1` [Example 901, (R)-(1,3-dimethyl-1H-pyrazol-5-yl)(4-(4-methylpyrazolo[1,5-a]pyridin-2-yl)-6,7-dihydro-1H-imidazo[4,5-c]pyridin-5(4H)-yl)methanone]: over 5000 nM; `Cn1ncnc1C(=O)N1CCc2[nH]cnc2[C@H]1c1cc2cccc(C(F)(F)F)n2n1` [Example 1144, (S)-(1-methyl-1H-1,2,4-triazol-5-yl)(4-(7-(trifluoromethyl)pyrazolo[1,5-a]pyridin-2-yl)-6,7-dihydro-1H-imidazo[4,5-c]pyridin-5(4H)-yl)methanone]: 500 to 1000 nM. On the same count and under the same terms, next, `O=C(c1nnc(-c2cnn(C(F)F)c2)o1)N1CCc2[nH]cnc2[C@H]1c1cc2c(OC(F)F)cccn2n1` [Example 1660, (S)-(4-(4-(difluoromethoxy)pyrazolo[1,5-a]pyridin-2-yl)-6,7-dihydro-1H-imidazo[4,5-c]pyridin-5(4H)-yl)(5-(1-(difluoromethyl)-1H-pyrazol-4-yl)-1,3,4-oxadiazol-2-yl)methanone]: 500 to 1000 nM; `O=C(c1nnc(-c2cnccn2)o1)N1CCc2[nH]cnc2[C@H]1c1cc2c(OC(F)(F)F)cccn2n1` [Example 1680, (S)-(5-(pyrazin-2-yl)-1,3,4-oxadiazol-2-yl)(4-(4-(trifluoromethoxy)pyrazolo[1,5-a]pyridin-2-yl)-6,7-dihydro-1H-imidazo[4,5-c]pyridin-5(4H)-yl)methanone]: 500 to 1000 nM.

As to `FC(F)c1nnc(N2CCc3[nH]cnc3[C@H]2c2cc3c(C(F)F)cccn3n2)o1` [Example 1733, (S)-2-(difluoromethyl)-5-(4-(4-(difluoromethyl)pyrazolo[1,5-a]pyridin-2-yl)-6,7-dihydro-1H-imidazo[4,5-c]pyridin-5(4H)-yl)-1,3,4-oxadiazole], the AC50 is under 500 nM.

As usually defined, the AC50 is the midpoint of the concentration-response curve, whichever way the signal moves.
